Results from patent US20120077795A1, “BIS-PYRIDYLPYRIDONES AS MELANIN-CONCENTRATING HORMONE RECEPTOR 1 ANTAGONISTS” (GLAXSMITHKLINE LLC, priority 2009, published 2012).

Target: T1, hMCHR1 (Homo sapiens, UniProt Q99705)
T1 construct: expressed in transfected cells; host or cells: HEK293
Assay: MCHR1 pIC50 determination FLIPR assay (calcium response to MCH challenge)
Assay type: cell-based
Conditions: HEK293 cells stably transfected with hMCHR1; MCH challenge at 4XEC50
Experimental: MCHR^1 pIC50 Determination FLIPR™ Assay: HEK293 cells stably transfected with hMCHR1 were propagated as adherent cultures at 37° C. in a humidified incubator. Cells were split 1:8 at 90% confluency two times per week. New cell stocks were recovered from storage every two months. Cells were plated in black 384-well plates (Greiner) 24 hours prior to assay at 15,000 cells/well in 50 μL DMEM/F12, 10% FBS, 2 mM I-glutamine. Compounds to be profiled were prepared by making a stock solution at 3×10^−3M in 100% DMSO. The stock solutions were serially diluted 1:4 in 100% DMSO using JANUS (PerkinElmer) liquid handling instrument to allow for an 11 point curve in singlicate. At the time of the assay, the media was removed from the cell plate by aspiration, followed by the addition of 20 μL of loading buffer (Calcium 4 Kit, […]). Following 50 min incubation at 37° C., 10 μL of compound was added to the plates via the FLIPR™ instrument ([…]). The plates were incubated at room temperature for 15 minutes along with an MCH peptide agonist challenge plate. […] The amount of luciferase generated was quantified in a TopCount (PerkinElmer Packard) at 19.8° C. in SPC (single photon counting) mode with a 5 second count/well and subjected to a nonlinear regression analysis curve fitting program to generate pIC50s.

T1 sequence (Q99705 whole entry): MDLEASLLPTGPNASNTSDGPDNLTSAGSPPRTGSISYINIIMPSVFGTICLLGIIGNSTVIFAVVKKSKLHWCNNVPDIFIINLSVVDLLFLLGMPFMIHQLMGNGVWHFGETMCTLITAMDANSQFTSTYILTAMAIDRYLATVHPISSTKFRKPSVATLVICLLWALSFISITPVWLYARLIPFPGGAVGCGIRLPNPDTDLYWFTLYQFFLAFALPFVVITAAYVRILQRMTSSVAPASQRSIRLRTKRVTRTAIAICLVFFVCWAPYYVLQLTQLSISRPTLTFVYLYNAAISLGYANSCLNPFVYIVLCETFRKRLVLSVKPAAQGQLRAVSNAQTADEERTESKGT

IC50 [nM]	SMILES
45	CNC1C2CN(c3ccc(-n4ccc(OCc5ccc(Cl)cn5)cc4=O)cn3)CC21 (centres unmarked) [Example 14]
56	O=c1cc(OCc2ccc(Cl)cn2)ccn1-c1ccc(N2CC3CONC3C2)nc1 (centres unmarked) [Example 16]
